This is an account of results in patent US20190233522A1, “NEW DOSAGE REGIMENS FOR ANTIBODY DRUG CONJUGATES BASED ON ANTI-AXL ANTIBODIES” (GENMAB A/S, priority 2016, published 2019).

The test system of test [1] is LXFA 677. Kind of test: NSCLC PDX model LXFA 677. It counts as in vivo, NMRI nu/nu mice. On the procedure: (§1) Inoculation of tumor fragments into 4-6 weeks old male NMRI nu/nu mice and randomization was performed as described above.
(§2) Erlotinib was given daily for 14 days at a dose of 50 mg/kg. Erlotinib alone, IgG1-b12-vcMMAE and IgG1-b12 were used as controls.

The test system of test [2] is LU1868. Kind of test: Erlotinib-resistant NSCLC PDX model LU1868. It counts as in vivo, BALB/c nude mice. On the procedure:
(§3) Inoculation of tumor fragments into BALB/c nude mice and randomization was performed as described above.
Erlotinib was given daily for 14 days at a dose of 50 mg/kg. Treatments with erlotinib alone, IgG1-b12-vcMMAE or IgG1-b12 were included as controls (FIG. 27).

For test [3], the system named is LXFA 526. Kind of test: Erlotinib-resistant NSCLC PDX model LXFA 526. It counts as in vivo, NMRI nu/nu mice. On the procedure: as §1
Erlotinib was given daily for 14 days at a dose of 50 mg/kg. Erlotinib alone, IgG1-b12-vcMMAE and IgG1-b12 were used as control.

The test system of test [4] is LXFA 677_3. The experiment in a line: NSCLC PDX model LXFA 677_3 (acquired resistance to erlotinib). In kind it is in vivo, NMRI nu/nu mice. On the procedure: as §1, §2
Test [5] deals with LU0858. The experiment in a line: Erlotinib-resistant NSCLC PDX model LU0858. It counts as in vivo, BALB/c nude mice. On the procedure:
as §3, §2

Test [6] concerns LU2511 tumors. The experiment in a line: Erlotinib-resistant NSCLC PDX model LU2511. It counts as in vivo, BALB/c nude mice. On the procedure:
Tumor fragments from donor mice bearing patient-derived NSCLC xenografts (LU2511) were used for inoculation into BALB/c nude mice. Each mouse was inoculated subcutaneously at the right flank with one tumor fragment (2-3 mm in diameter) and tumors were allowed to grow until the tumor volume was about 200 mm^3. […] The antibodies and ADCs were dosed intravenously (i.v.) at 4 mg/kg on the day of randomization (day 0) and on day 7. Erlotinib was dosed orally (per os) at 50 mg/kg daily for 2 weeks. Tumor volumes (mm^3) were monitored twice weekly and were calculated from caliper (PLEXX) measurements as: 0.5×(length)×(width)^2.

Test [7] concerns ES0195 tumors. Kind of test: Esophageal cancer PDX model ES0195. In kind it is in vivo, BALB/c nude mice. As to the method: Tumor fragments from donor mice bearing patient-derived esophageal xenografts (ES0195) were used for inoculation into BALB/c nude mice. Each mouse was inoculated subcutaneously at the right flank with one tumor fragment (2-3 mm in diameter) and tumors were allowed to grow until the tumor volume was about 150 mm^3. […] The antibodies and ADCs were dosed intravenously (i.v.) at 4 mg/kg at day of randomization (day 0) and day 7. Paclitaxel was dosed intra-peritoneally (i.p.) at 20 mg/kg at day 0, 7, and 14. Tumor volumes (mm^3) were monitored twice weekly and were calculated from caliper (PLEXX) measurements as: 0.52×(length)×(width)^2.

Test [8] deals with CV1664. Kind of test: Cervical cancer PDX model CV1664. In kind it is in vivo, BALB/c nude mice. On the procedure: Inoculation of tumor fragments into BALB/c nude mice and randomization was performed as described in Example 23.
Test [9] deals with A431 cells. Kind of test: Cytotoxicity assay (CellTiter-Glo) in A431 cells. In kind it is cell-based. The settings on record: A431 (n = 3), 5 days incubation. On the procedure:
(§4) LCLC-103H cells (human large cell lung cancer) and A431 cells (DMSZ, Braunschweig, Germany) were cultured in RPMI 1640 with L-Glutamine (Cambrex; cat.no. BE12-115F) supplemented with 10% (vol/vol) heat inactivated Cosmic Calf Serum (Perbio; cat.no. SH30087.03), 2 mM L-glutamine (Cambrex; cat.no. US17-905C), 50 IU/mL penicillin, and 50 µg/mL streptomycin (Cambrex; cat.no. DE17-603E). MDA-MB231 cells were cultured in DMEM with high glucose and HEPES (Lonza #BE12-709F), Donor Bovine Serum with Iron (Life Technologies #10371-029), 2 mM L-glutamine (Lonza #BE17 -605E), 1 mM Sodium Pyruvate (Lonza #BE13-115E), and MEM Non-Essential Amino Acids Solution (Life Technologies #11140). The cell lines were maintained at 37° C. in a 5% (vol/vol) CO2 humidified incubator. LCLC-103H, A431 and MDA-MB231 cells were cultured to near confluency, after which cells were trypsinized, resuspended in culture medium and passed through a cell strainer (BD Falcon, cat.no. 352340) to obtain a single cell suspension. […]
(§5) Subsequently, 180 μL per well was transferred to white 96-well Optiplate™ plates (PerkinElmer, Waltham, Mass.; cat.no. 6005299), which were incubated for 30 min at room temperature. Finally, luminescence was measured on an EnVision multiplate reader (Envision, Perkin Elmer).

Test [10] deals with LCLC-103H tumors. The experiment in a line: LCLC-103H xenograft model (low Gas6, Example 5). It counts as in vivo. The note with it: 1 mg/kg i.p., SCID mice. As to the method:
(§6) Tumor induction was performed by subcutaneous injection of 5×10^6 A431 or LCLC-103H tumor cells (both obtained from Leibniz-Institut—Deutsche Sammlung von Mikroorganismen and Zellkulturen GmbH (DSMZ)) in 200 μL PBS in the right flank of female SCID mice. Treatment was started 14-21 days after tumor cell inoculation, when the average tumor size was >100-200 mm^3 and distinct tumor growth was observed. Mice received a single injection or a total of 4 biweekly intraperitoneal injections with IgG1-AXL-vcMMAE ADCs or control antibody (unconjugated IgG1-b12), as indicated. Tumor volume was determined at least two times per week. Tumor volumes (mm^3) were calculated from caliper (PLEXX) measurements as: 0.52×(length)×(width)^2.

Test [11] has as its system PAXF1657 tumors. The experiment in a line: PAXF1657 pancreas cancer PDX model. In kind it is in vivo, NMRI nu/nu mice. As to the method:
Human pancreas tumor tissue was subcutaneously implanted in the left flank of 5-7 weeks old female NMRI nu/nu mice. […] At day of randomization (day 0), the 3 ADCs were dosed intravenously (i.v.) at either 4 mg/kg or 2 mg/kg, and the control group received a single dose of IgG1-b12 (4 mg/kg). Tumor volumes (mm^3) were monitored twice weekly and were calculated from caliper (PLEXX) measurements as: 0.52×(length)×(width)^2.

Test [12] concerns LCLC-103H xenograft tumors. The experiment in a line: Therapeutic treatment of SC LCLC-103H tumor xenografts (Example 3). In kind it is in vivo, SCID mice. On the procedure: The in vivo efficacy of MMAE-conjugated anti-AXL antibodies was determined in established subcutaneous (SC) LCLC-103H xenograft tumors in SCID mice. 5×10^6 LCLC-103H (large cell lung carcinoma) tumor cells (obtained from Leibniz-Institut DSMZ-Deutsche Sammlung von Mikroorganismen and Zellkulturen GmbH (DSMZ)) in 200 μL PBS were injected subcutaneously in the right flank of female SCID mice. Starting 14-21 days after tumor cell inoculation, when the average tumor size was >100-200 mm^3 and distinct tumor growth was observed, a single injection with 1 mg/kg (20 μg/mouse) IgG1-AXL-vcMMAE antibodies or control (unconjugated IgG1-b12) was given intraperitoneally (100 μL/mouse). Tumor volume was determined at least two times per week. Tumor volumes (mm^3) were calculated from caliper (PLEXX) measurements as: 0.52×(length)×(width)^2.

Test [13] relates to LCLC-103H cells. Kind of test: Cytotoxicity assay (CellTiter-Glo) in LCLC-103H cells. The note with it: 5 days incubation. In kind it is cell-based, human. As to the method: as §4, §5
In test [14] the test system is MDA-MB231 cells. The experiment in a line: Cytotoxicity assay (CellTiter-Glo) in MDA-MB231 cells. It counts as cell-based. The note with it: MDA-MB231 (n = 2), 5 days incubation. As to the method:
as §4, §5

The test system of test [15] is A431 tumors. Kind of test: A431 xenograft model (high Gas6). In kind it is in vivo. The settings on record: 3 mg/kg i.p., SCID mice. As to the method:
as §6

[16] abbreviates: 2 doses of 4 mg/kg on days 55 and 62.

Consider `C#Cc1cccc(Nc2ncnc3cc(OCCOC)c(OCCOC)cc23)c1` [erlotinib, reference compound], for which the “effect on tumor growth, LXFA 677” value in test [1] (50 mg/kg daily for 14 days) is listed as “induced partial tumor regression”. The “effect on tumor growth, LU1868” value in test [2] (50 mg/kg daily for 14 days) was “no effect on tumor growth”. In addition, the “effect on tumor growth, LXFA 526” value in test [3] (50 mg/kg daily for 14 days) is “no effect on tumor growth”. Also, in test [4] (50 mg/kg daily for 14 days), the “effect on tumor growth, LXFA 677_3” value was “no effect on tumor growth”. Besides, the “effect on tumor growth, LU0858” value in test [5] (50 mg/kg daily for 14 days) is recorded as “no effect on tumor growth”. Besides, in test [6] (50 mg/kg per os daily for 2 weeks), the “anti-tumor activity on LU2511 tumors” value is reported as “did not induce anti-tumor activity”.
Consider `CC(=O)O[C@H]1C(=O)[C@@]2(C)[C@H]([C@H](OC(=O)c3ccccc3)[C@]3(O)C[C@H](OC(=O)[C@H](O)[C@@H](NC(=O)c4ccccc4)c4ccccc4)C(C)=C1C3(C)C)[C@]1(OC(C)=O)CO[C@@H]1C[C@@H]2O` [paclitaxel, reference compound], for which the “anti-tumor activity on ES0195 tumors” value in test [7] (20 mg/kg i.p. day 0, 7 and 14) is “tumor growth inhibition”. In test [8] (20 mg/kg intraperitoneally day 0 and 7), the “effect on tumor growth, CV1664” value is reported as “induced partial tumor regression”.
Consider IgG1-AXL-107, for which the “effect on tumor growth compared to IgG1-b12 control group, CV1664” value in [8] (4 mg/kg day 0 and 7) is reported as “only induced minor inhibition of tumor growth”.
Take “IgG1-AXL-107-vcMMAE: anti-AXL antibody 107 (VH SEQ ID No 1, VL SEQ ID No 2) conjugated to MMAE via vc linker”: in [7] (4 mg/kg i.v. day 0 and day 7), the “anti-tumor activity on ES0195 tumors” value is “induced tumor regression”. The “effect on tumor growth, LXFA 677” value in test [1] (2 mg/kg day 0 and 7) is “induced tumor growth inhibition”; in test [1] (4 mg/kg day 0 and 7), “induced partial tumor regression”. Also, the figures for the “EC50 Mean” value in [9] and in test [14] were 0.154 µg/mL and 0.037 µg/mL, respectively. Also, in test [8] (setting [16]), the “retreatment of three mice with tumor regrowth after paclitaxel, CV1664” value is “Two of the three mice showed complete tumor regression”. Further, the “retreatment of two mice with tumor regrowth after initial 4 mg/kg ADC, CV1664” value in [8] (setting [16]) is “partial tumor regression in both mice”. Further, the “second retreatment of the one mouse with regrowth after paclitaxel and ADC, CV1664” value in test [8] (2 doses of 4 mg/kg on days 98 and 105) is recorded as “partial tumor regression”. Besides, in [8] (2 doses of 4 mg/kg on days 105 and 112), the “second retreatment of the same two mice, CV1664” value is given as “partial tumor regression in both animals”. Besides, in [8] (both dose levels (2 or 4 mg/kg), day 0 and 7, lasted at least until day 49), the “effect on tumor growth, CV1664” value was “induced strong tumor regression”. The “anti-tumor activity on LCLC-103H tumors” value in test [10] is recorded as “induced regression”. Besides, in test [2] (2 mg/kg and 4 mg/kg, day 0 and 7, alone), the “effect on tumor growth, LU1868” value is given as “induced tumor growth inhibition”. For the same compound, the “growth of PAXF1657 tumors compared to the control group” value in [11] (2 mg/kg i.v., day 0) is “significantly reduced the growth”. Besides, in test [11] (4 mg/kg i.v., day 0), the “anti-tumor activity on PAXF1657 tumors” value is recorded as “induced tumor regression”. In addition, the “average tumor size versus isotype control IgG1-b12” value in [11] (day 14, 2 mg/kg or 4 mg/kg, p<0.001 Tukey's multiple comparison test) was “significantly smaller”. In addition, the “effect on tumor growth, LXFA 526” value in test [3] (2 mg/kg day 0 and 7) is recorded as “induced tumor growth inhibition”; in [3] (4 mg/kg day 0 and 7), “complete tumor regression in all mice at least until day 76”. Moreover, the complete tumor reduction result in [12] (1 mg/kg single i.p.) is “in some mice within these groups to complete tumor reduction”. The “tumor volume versus control IgG1-b12” value in test [12] (day 30, One Way ANOVA (Dunnett's), 1 mg/kg single i.p.) is listed as “highly significant difference”. Further, in [12] (single i.p. injection 1 mg/kg, SCID mice), the “anti-tumor activity in established SC LCLC-103H tumors” value was “induced tumor regression”. Moreover, in test [4] (both dose levels (2 and 4 mg/kg), day 0 and 7, lasted at least until day 41), the “effect on tumor growth, LXFA 677_3” value is reported as “induced complete tumor regression”. For the same compound, the “effect on tumor growth, LU0858” value is given as “no effect on tumor growth” in [5] (2 mg/kg day 0 and 7, alone); “induced tumor growth inhibition” in [5] (4 mg/kg day 0 and 7, alone, compared to IgG1-b12-vcMMAE control). The “anti-tumor activity on LU2511 tumors” value in test [6] (4 mg/kg i.v. day 0 and day 7) is “induced tumor growth inhibition”. Moreover, the EC50 in test [13] was found to be 0.022 µg/mL. Also, in test [15], the “anti-tumor activity on A431 tumors” value is listed as “induced growth inhibition”.
